According to paper PMC12564265, “Navigating the Deep Eutectic Solvent Landscape: Experimental and Machine Learning Solubility Explorations of Syringic, p-Coumaric, and Caffeic Acids” (International Journal of Molecular Sciences, 2025):

Experiments:
[1] = Shake-flask solubility with spectrophotometric measurement in neat deep eutectic solvents; format: physicochemical
Protocol: (§1) In order to determine the solubility of the three studied phenolic acids in deep eutectic solvents, a very well-established shake-flask method coupled with spectrophotometric measurements was utilized. The initial procedure involved the preparation of various DESs, which was conducted by mixing their HBA and HBD counterparts in a glass vessel and heating the composition until the formation of a transparent, uniform liquid. […] For additional measurements, the DESs were mixed with water in varying proportions, creating aqueous DES systems. Saturated solutions of CAF, SYR, and COU were obtained by adding excess amounts of these compounds to test tubes containing either a neat deep eutectic solvent or its aqueous solution. Such samples were placed in the Orbital Shaker Incubator ES-20/60 from Biosan (Riga, Latvia) and heated for 24 h at 25 °C, 30 °C, 35 °C, and 40 °C (±0.1 °C) with simultaneous mixing at 60 rpm. Before measurements, the samples were filtered using a PTFE syringe filter from Qpore (Dallas, TX, USA) with a 0.22 μm pore size. In order to avoid possible precipitation of the saturated solutions at decreased temperatures, the test tubes, syringes, pipette tips, and filters were kept at a temperature identical to that of the samples. The spectrophotometric measurements required the preparation of calibration curves for the three APIs. This involved the preparation of a stock solution of each compound in methanol, which was later successfully diluted, and the obtained solutions of varying concentrations were measured using an A360 spectrophotometer from AOE Instruments (Shanghai, China). The wavelength range was set to 200-500 nm, and the resolution was 1 nm. The analytical wavelengths were determined to be 324 nm for caffeic acid, 273 nm for syringic acid, and 308 nm for p-coumaric acid. The final regression equations, obtained after averaging three distinct sets of measurements, are collected in Table 2 together with determination coefficients and limits of detection (LOD) and quantification (LOQ) for the calibration curves. The measurements of the samples were conducted with the same spectrophotometer and identical settings. Methanol was used for the dilution of the samples so that they could remain within the linearity range of the method. Complete spectra of the samples were recorded, but for the solubility determination, the absorbance values at a specific analytical wavelength were considered. These values were combined with the corresponding regression equations of the calibration curves and served for the calculation of the concentration of the three phenolic acids in the studied samples. The densities of such samples were also measured, and for this task 1 mL of each sample was weighed to a precision of 0.1 mg using an AS 110 R2.PLUS analytical balance from […] (Radom, Poland). The obtained densities enabled the calculation of mole fractions of CAF, SYR, and COU dissolved in the studied DESs. For each considered system, three distinct measurements were conducted, and the results were averaged.

[2] = Shake-flask solubility with spectrophotometric measurement in aqueous DES mixtures; format: physicochemical; settings: Bet – TEG 1:2 + water
Protocol: as §1

COc1cc(C(=O)O)cc(OC)c1O [syringic acid, 4-hydroxy-3,5-dimethoxybenzoic acid]
Mole fraction solubility ([1]; neat DES Bet - DEG, HBA:HBD molar ratio 1:1, 25 °C): 0.0235±0.0003 mole fraction | Mole fraction solubility ([1]; neat DES Bet - DEG, HBA:HBD molar ratio 1:2, 25 °C): 0.0311±0.0002 mole fraction | Mole fraction solubility ([1]; neat DES Bet - DEG, HBA:HBD molar ratio 1:4, 25 °C): 0.0283±0.0003 mole fraction | Mole fraction solubility ([1]; neat DES Bet - ETG, HBA:HBD molar ratio 1:1, 25 °C): 0.0132±0.0001 mole fraction | Mole fraction solubility ([1]; neat DES Bet - ETG, HBA:HBD molar ratio 1:2, 25 °C): 0.0274±0.0002 mole fraction | Mole fraction solubility ([1]; neat DES Bet - ETG, HBA:HBD molar ratio 1:4, 25 °C): 0.0205±0.0002 mole fraction | Mole fraction solubility ([1]; neat DES Bet - GLY, HBA:HBD molar ratio 1:1, 25 °C): 0.0203±0.0002 mole fraction | Mole fraction solubility ([1]; neat DES Bet - GLY, HBA:HBD molar ratio 1:2, 25 °C): 0.0358±0.0003 mole fraction | Mole fraction solubility ([1]; neat DES Bet - GLY, HBA:HBD molar ratio 1:4, 25 °C): 0.0300±0.0002 mole fraction | Mole fraction solubility ([1]; neat DES Bet - TEG, HBA:HBD molar ratio 1:1, 25 °C): 0.0317±0.0003 mole fraction | Mole fraction solubility ([1]; neat DES Bet - TEG, HBA:HBD molar ratio 1:2, 25 °C): 0.0474 mole fraction | Mole fraction solubility ([1]; neat DES Bet - TEG, HBA:HBD molar ratio 1:2, 25 °C, listed as syryngic acid): 0.0474±0.0003 mole fraction | Mole fraction solubility ([1]; neat DES Bet - TEG, HBA:HBD molar ratio 1:4, 25 °C): 0.0388±0.0003 mole fraction | Mole fraction solubility ([1]; neat DES ChCl - DEG, HBA:HBD molar ratio 1:1, 25 °C): 0.0230±0.0004 mole fraction | Mole fraction solubility ([1]; neat DES ChCl - DEG, HBA:HBD molar ratio 1:2, 25 °C): 0.0465±0.0004 mole fraction | Mole fraction solubility ([1]; neat DES ChCl - ETG, HBA:HBD molar ratio 1:1, 25 °C): 0.0186±0.0002 mole fraction | Mole fraction solubility ([1]; neat DES ChCl - ETG, HBA:HBD molar ratio 1:2, 25 °C): 0.0304±0.0002 mole fraction | Mole fraction solubility ([1]; neat DES ChCl - ETG, HBA:HBD molar ratio 1:4, 25 °C): 0.0244±0.0002 mole fraction | Mole fraction solubility ([1]; neat DES ChCl - TEG, HBA:HBD molar ratio 1:2, 25 °C): 0.0515 mole fraction | Mole fraction solubility ([2]; x*DES 0.1, 25°C): 0.0042±0.0001 mole fraction | Mole fraction solubility ([2]; x*DES 0.1, 30°C): 0.0046±0.0001 mole fraction | Mole fraction solubility ([2]; x*DES 0.1, 35°C): 0.0057±0.0001 mole fraction | Mole fraction solubility ([2]; x*DES 0.1, 40°C): 0.0067±0.0001 mole fraction | Mole fraction solubility ([2]; x*DES 0.2, 25°C): 0.0093±0.0001 mole fraction | Mole fraction solubility ([2]; x*DES 0.2, 30°C): 0.0105±0.0001 mole fraction | Mole fraction solubility ([2]; x*DES 0.2, 35°C): 0.0127±0.0001 mole fraction | Mole fraction solubility ([2]; x*DES 0.2, 40°C): 0.0148±0.0002 mole fraction | Mole fraction solubility ([2]; x*DES 0.3, 25°C): 0.0153±0.0001 mole fraction | Mole fraction solubility ([2]; x*DES 0.3, 30°C): 0.0173±0.0001 mole fraction | Mole fraction solubility ([2]; x*DES 0.3, 35°C): 0.0207±0.0002 mole fraction | Mole fraction solubility ([2]; x*DES 0.3, 40°C): 0.0239±0.0002 mole fraction | Mole fraction solubility ([2]; x*DES 0.4, 25°C): 0.0214±0.0002 mole fraction | Mole fraction solubility ([2]; x*DES 0.4, 30°C): 0.0247±0.0001 mole fraction | Mole fraction solubility ([2]; x*DES 0.4, 35°C): 0.0290±0.0002 mole fraction | Mole fraction solubility ([2]; x*DES 0.4, 40°C): 0.0341±0.0003 mole fraction | Mole fraction solubility ([2]; x*DES 0.5, 25°C): 0.0284±0.0002 mole fraction | Mole fraction solubility ([2]; x*DES 0.5, 30°C): 0.0318±0.0002 mole fraction | Mole fraction solubility ([2]; x*DES 0.5, 35°C): 0.0386±0.0002 mole fraction | Mole fraction solubility ([2]; x*DES 0.5, 40°C): 0.0457±0.0003 mole fraction | Mole fraction solubility ([2]; x*DES 0.6, 25°C): 0.0351±0.0003 mole fraction | Mole fraction solubility ([2]; x*DES 0.6, 30°C): 0.0396±0.0003 mole fraction | Mole fraction solubility ([2]; x*DES 0.6, 35°C): 0.0475±0.0009 mole fraction | Mole fraction solubility ([2]; x*DES 0.6, 40°C): 0.0568±0.0006 mole fraction | Mole fraction solubility ([2]; x*DES 0.7, 25°C): 0.0425±0.0003 mole fraction | Mole fraction solubility ([2]; x*DES 0.7, 30°C): 0.0483±0.0005 mole fraction | Mole fraction solubility ([2]; x*DES 0.7, 35°C): 0.0579±0.0010 mole fraction | Mole fraction solubility ([2]; x*DES 0.7, 40°C): 0.0702±0.0004 mole fraction | Mole fraction solubility ([2]; x*DES 0.8, 30°C): 0.0558±0.0006 mole fraction | Mole fraction solubility ([2]; x*DES 0.8, 35°C): 0.0673±0.0015 mole fraction | Mole fraction solubility ([2]; x*DES 0.8, 40°C): 0.0790±0.0009 mole fraction | Mole fraction solubility ([2]; x*DES 0.9, 25°C): 0.0488 mole fraction | Mole fraction solubility ([2]; x*DES 0.9, 25°C, listed as syryngic acid): 0.0488±0.0004 mole fraction
